In PMC9154793, “Design, synthesis, and biological evaluation of triazole-pyrimidine-methylbenzonitrile derivatives as dual A2A/A2B adenosine receptor antagonists” (Journal of Enzyme Inhibition and Medicinal Chemistry, 2022):
Read-outs that look alike come from different tables or passages of the source.

Assay: In vivo pharmacokinetics study in Balb/c mice
Details: for Cmax / Tmax / half-life / AUC(0-inf) / bioavailability / AUC(0-t): female, Balb/c, mouse, plasma; for bioavailability: oral 30 mg/kg vs i.v. 10 mg/kg, read-out: F (absolute bioavailability)
Protocol: The in vivo pharmacokinetic (PK) profiles of compounds 7f and 7i were examined in […] Balb/c mice (Table 5 and Figure 5). […] After the intravenous (i.v.) administration of 10 mg/kg, the maximum plasma concentration of compounds 7f and 7i were 5010.30 µg/l at 0.25 h and 7266.60 µg/l at 0.25 h, respectively. […] These PK parameters can be used to evaluate the drug-like properties of compounds 7f and 7i, so as to clarify their effectiveness and obtain better clinical treatment effects.
The absolute bioavailabilities of synthetic compounds (7f, 7i) were studied in female Bal b/c mice (Jinan Pengyue Experimental Animal Breeding Co., Ltd.). The mice were divided into four groups each having six mice and were collected at crossover time points, with three mice at each point. Pharmacokinetics (PK) was evaluated after a single dose of 30 mg/kg oral gavage (Oral) or 10 mg/kg intravenous (i.v.) administration. After oral administration and i.v. injection, blood samples were obtained from the suborbital veniplex at pre, 15 min, 30 min, 1 h, 2 h, 4 h, 6 h, 8 h, 12 h, 24 h (Oral) and pre, 5 min, 15 min, 30 min, 1 h, 2 h, 4 h, 6 h, 8 h, 12 h, 24 h (i.v.). Approximately 200 μl of blood was collected at each time point. All blood samples were put into plastic microcentrifuge tubes containing Heparin-Na as an anticoagulant. Microcentrifuge tubes with blood samples and anticoagulant were inverted several times for proper mixing of the tube contents to centrifugation for plasma. Plasma samples will be centrifuged at 12,000 rpm for 8 min at 4 °C to obtain the supernatant. The serum sample (25 μl) was treated with acetonitrile (100 μl), after which the mixture was vortex-mixed for 8 min and centrifuged at 10,000 rpm for 10 min at 4 °C. The supernatant layer was collected and then 50 μl of supernatant was injected for the UPLC-MS/MS analysis (details of the analytical method see Supporting information). […]
9. Analytical method of pharmacokinetics assay
Animal experiments were performed according to the institutional ethical guidelines on animal care and approved by the Institute Animal Care and Use Committee at Binzhou […]
Female Bal b/c mice (sourced from Jinan Pengyue Experimental Animal Breeding Co., Ltd.) approximately 6-8 weeks of age, and a weight of approximately 20-30 g. All of the mice were permitted with free access to standard pelleted food and water ad libitum and were kept in clean cages under controlled conditions (light/ dark cycle of 12 h, 60 ± 2% humidity, and 25 ± 1 °C). Before the day of administration, […] were fasted for 12 h but allowed water ad libitum.
9.2 Design of bioavailability study
The mice were divided into 4 groups each having six mice and were collected at crossover time points, with three mice at each point. Pharmacokinetics (PK) was […]
evaluated after a single dose of 30 mg/kg oral gavage (Oral) and 10 mg/kg intravenous […]
(i.v.) administration. The blood samples were obtained from the suborbital veniplex.
Each cohort had three mice, and plasma was collected at pre, 5 min, 15 min, 30 min, 1 […]
h, 2 h, 4 h, 6 h, 8 h, 12 h, and 24 h post dose for intravenous administration. Plasma […]
was collected at pre, 15 min, 30 min, 1 h, 2 h, 4 h, 6 h, 8 h, 12 h, and 24 h post dose for […]
9.3 Samples collection and quantitative analysis
Approximately 200 μL of blood was collected at each time point. All blood samples […]
were put into plastic microcentrifuge tubes containing Heparin-Na as anticoagulant. […]
microcentrifuge tubes with blood samples and anticoagulant were inverted several […]
times for proper mixing of the tube contents to centrifugation for plasma. Plasma […]
samples will be centrifuged at 12000 rpm for 8 min at 4 ℃ to obtain the supernatant.
The serum sample (25 μL) was treated with acetonitrile (100 μL), after which the […]
mixture was vortex-mixed for 8 min and centrifuged at 10000 rpm for 10 min at 4 ℃.
The supernatant layer was collected and then 50 μL of supernatant was injected for the […]
9.4 Chromatography and mass spectrometry conditions […]

[1] = iv, i.v. 10 mg/kg, read-out: Cmax i.v.
[2] = oral 30 mg/kg, read-out: Cmax Oral
[3] = iv, i.v. 10 mg/kg, mean n = 3, read-out: t1/2 i.v. (converted)
[4] = iv, i.v. 10 mg/kg, read-out: AUC0→∞ i.v.
[5] = oral 30 mg/kg, mean n = 3, read-out: t1/2 Oral (converted)
[6] = oral 30 mg/kg, read-out: AUC0→t Oral
[7] = oral 30 mg/kg, read-out: AUC0→∞ Oral
[8] = po, 30 mg/kg, oral 30 mg/kg, read-out: tmax Oral

SMILES	Cmax [1]	Cmax [2]	Tmax (iv, 10 mg/kg, i.v. 10 mg/kg, read-out: tmax i.v.)	half-life [3]	AUC(0-inf) [4]	bioavailability	half-life [5]	AUC(0-t) [6]	AUC(0-inf) [7]	Tmax [8]	AUC0→t/Dose i.v. (i.v. 10 mg/kg)	AUC0→∞/Dose i.v. (i.v. 10 mg/kg)	Cmax/Dose i.v. (i.v. 10 mg/kg)	AUC0→t/Dose Oral (oral 30 mg/kg)	AUC0→∞/Dose Oral (oral 30 mg/kg)	Cmax/Dose Oral (oral 30 mg/kg)	AUC(0-t) (iv, i.v. 10 mg/kg, read-out: AUC0→t i.v.)
Cc1c(C#N)cccc1-c1cc(-c2cn(Cc3cccc(C#N)n3)nn2)nc(N)n1 [Compound 7f, 6-((4-(2-Amino-6-(3-cyano-2-methylphenyl)pyrimidin-4-yl)-1H-1,2,3-triazol-1-yl)methyl)picolinonitrile]	5010 ng/mL	7160 ng/mL	0.25 h	2.67 h	17300 ng·h/mL	87.7%	4.12 h	45500 ng·h/mL	46200 ng·h/mL	2 h	1728.68 (µg/L*h)/(mg/kg)	1731.60 (µg/L*h)/(mg/kg)	501.03 (µg/L)/(mg/kg)	1516.35 (µg/L*h)/(mg/kg)	1541.08 (µg/L*h)/(mg/kg)	238.76 (µg/L)/(mg/kg)	
Cc1c(C#N)cccc1-c1cc(-c2cn(Cc3cccc(C(N)=O)n3)nn2)nc(N)n1 [Compound 7i, 6-((4-(2-Amino-6-(3-cyano-2-methylphenyl)pyrimidin-4-yl)-1H-1,2,3-triazol-1-yl)methyl)picolinamide]	7270 ng/mL	1010 ng/mL		2.19 h	4480 ng·h/mL	58.8%	4.82 h	7900 ng·h/mL	8150 ng·h/mL	1 h	448.46 (µg/L*h)/(mg/kg)	448.48 (µg/L*h)/(mg/kg)	726.66 (µg/L)/(mg/kg)	263.50 (µg/L*h)/(mg/kg)	271.51 (µg/L*h)/(mg/kg)	33.58 (µg/L)/(mg/kg)	4480 ng·h/mL
